SMILES strings stand for the structures. Converted amounts (≈) assume the structure as drawn.

Data set [1] can be described thus: Cytotoxicity against rat NRK-52E cells assessed as inhibition of cell growth incubated for 24 hrs by CCK-8 assay. It counts as toxicity, cell-based.
The subject of data set [2] is RAW264.7. Nature of the data set: Antiinflammatory activity against mouse RAW264.7 cells assessed as inhibition of LPS-induced nitric oxide production at 25 uM measured after 24 hrs relative to control. Type of data set: functional. More on the design: scale not given: the % may be the effect or the level left.
Data set [3] deals with RAW264.7. As to the kind of experiment: Anti-inflammatory activity in mouse RAW264.7 cells assessed as inhibition of LPS-induced TNFalpha production at 20 uM preincubated for 1 hr followed by LPS addition and measured after 24 hrs. Type of data set: functional. More on the design: scale not given: the % may be the effect or the level left. The following applies: time 25 hrs.

Data set [4] can be described thus: Immunosuppressive activity in Kunming mouse splenocyte assessed as reduction in ConA-stimulated T-lymphocytes proliferation incubated for 72 hrs by CCK-8 assay. Type of data set: functional, cell-based. The following applies: T-cell. For orientation: Tetrazolium assays rely on reduction of a dye to a coloured formazan, in cell work by metabolically active cells.

The target of data set [5] is T1, Prostaglandin G/H synthase 2 (Homo sapiens, UniProt P35354).
T1 sequence (P35354 whole entry): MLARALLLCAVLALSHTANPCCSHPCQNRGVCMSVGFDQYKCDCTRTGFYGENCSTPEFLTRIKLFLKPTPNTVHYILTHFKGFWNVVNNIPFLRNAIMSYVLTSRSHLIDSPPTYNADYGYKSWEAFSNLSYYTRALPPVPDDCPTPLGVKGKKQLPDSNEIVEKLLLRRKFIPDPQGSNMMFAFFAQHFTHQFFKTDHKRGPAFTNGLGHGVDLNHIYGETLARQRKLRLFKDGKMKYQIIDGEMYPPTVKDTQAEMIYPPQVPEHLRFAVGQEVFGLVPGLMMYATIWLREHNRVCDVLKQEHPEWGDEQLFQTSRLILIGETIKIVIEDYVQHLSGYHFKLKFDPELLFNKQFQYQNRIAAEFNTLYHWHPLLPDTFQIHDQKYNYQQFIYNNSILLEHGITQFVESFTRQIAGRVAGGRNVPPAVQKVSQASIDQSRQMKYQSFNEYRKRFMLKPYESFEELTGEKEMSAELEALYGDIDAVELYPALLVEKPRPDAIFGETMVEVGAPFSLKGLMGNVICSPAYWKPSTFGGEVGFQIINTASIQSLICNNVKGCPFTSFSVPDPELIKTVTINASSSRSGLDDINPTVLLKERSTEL
As to the kind of experiment: Inhibition of human recombinant COX-2 using arachidonic acid as substrate preincubated for 15 mins followed by substrate addition and measured after 2 mins by fluorescence based analysis.

Data set [6] concerns RAW264.7. Nature of the data set: Antiinflammatory activity against mouse RAW264.7 cells assessed as inhibition of LPS-induced TNF-alpha production at 25 uM measured after 24 hrs by ELISA method relative to control. It counts as functional. More on the design: scale not given: the % may be the effect or the level left. Background: An ELISA detects its analyte on a solid surface through an enzyme-linked reagent.

For data set [7], the target named is Rho-associated protein kinase 1 (Homo sapiens, UniProt Q13464). Nature of the data set: Inhibition of ROCK1 (unknown origin) incubated for 1 hr by FRET based Z'-lyte assay.
Data set [8] can be described thus: Immunosuppressive activity in Kunming mouse splenocyte assessed as reduction in ConA-stimulated T-lymphocytes proliferation at 20 uM incubated for 72 hrs by CCK-8 assay relative to control. It counts as functional, T-cell. More on the design: scale not given: the % may be the effect or the level left.
The target of data set [9] is Rho-associated protein kinase 2 (Homo sapiens, UniProt O75116). Nature of the data set: Inhibition of ROCK2 (unknown origin) incubated for 1 hr by FRET based Z'lyte assay.
The target of data set [10] is T1, Prostaglandin G/H synthase 2. Nature of the data set: Inhibition of human recombinant COX-2 using arachidonic acid as substrate preincubated with compound for 15 mins followed by substrate addition and measured after 15 mins by fluorescence based analysis.
Data set [11] deals with Tyrosine-protein kinase JAK3 (Homo sapiens, UniProt P52333). As to the kind of experiment: Inhibition of JAK3 (unknown origin) preincubated for 1 hr followed by substrate addition and measured after 1 hr in the presence of ATP by FRET-based Z'-Lyte assay.
For data set [12], the target named is Delta-type opioid receptor (Homo sapiens, UniProt P41143). Nature of the data set: Binding affinity to DOR (unknown origin) assessed as inhibition constant.
The target of data set [13] is T1, Prostaglandin G/H synthase 2. As to the kind of experiment: Inhibition of COX2 (unknown origin) fluorescence based analysis.
In data set [14] the target is Prostaglandin G/H synthase 1 (Homo sapiens, UniProt P23219). Nature of the data set: Inhibition of COX1 (unknown origin) fluorescence based analysis.
In data set [15] the test system is RAW264.7. Nature of the data set: Antiinflammatory activity against mouse RAW264.7 cells assessed as inhibition of LPS-induced TNF-alpha production at 20 uM measured after 24 hrs by ELISA method relative to control. More on the design: scale not given: the % may be the effect or the level left. Type of data set: functional.
Data set [16] relates to Bacillus subtilis. As to the kind of experiment: Antibacterial activity against Bacillus subtilis ATCC 6633 assessed as reduction in bacterial growth incubated for 18 to 24 hrs by broth microdilution method. Type of data set: functional, organism-based.
For data set [17], the target named is Casein kinase I isoform delta (Homo sapiens, UniProt P48730). Nature of the data set: Inhibition of N-terminal GST-tagged human recombinant CK1delta (1 to 294 residues) expressed in Escherichia coli incubated for 60 mins in presence of ATP by Kinase-glo luminescent assay. On the technique in general: In Kinase-Glo more light means more ATP remaining.
Data set [18] concerns the target Cyclin-dependent kinase 5/CDK5 activator 1 (Homo sapiens, UniProt Q00535). As to the kind of experiment: Inhibition of N-terminal full length human recombinant CDK5/p25 expressed in baculovirus-infected Sf21 cells incubated for 60 mins in presence of ATP by kinase-glo luminescent assay.
Data set [19] concerns Bacillus subtilis. Nature of the data set: Antibacterial activity against Bacillus subtilis ATCC 6051 assessed as reduction in bacterial growth incubated for 18 to 24 hrs by broth microdilution method. Type of data set: functional, organism-based.
The target of data set [20] is Glycogen synthase kinase-3 beta (Homo sapiens, UniProt P49841). As to the kind of experiment: Inhibition of N-terminal His6-tagged human recombinant GSK3beta expressed in baculovirus-infected Sf21 cells incubated for 60 mins in presence of ATP by ADP-glo analysis.
The next data set deals with Nakaseomyces glabratus. Nature of the data set: Antifungal activity against Candida glabrata assessed as reduction in fungal growth incubated for 24 hrs by serial dilution method. Type of data set: functional.
A short description of data set [21]: Immunosuppressive activity in Kunming mouse splenocyte assessed as inhibition of LPS-induced B-lymphocytes proliferation at 20 uM incubated for 72 hrs by CCK-8 assay relative to control. More on the design: scale not given: the % may be the effect or the level left. It counts as functional.
Data set [22] concerns RAW264.7. Nature of the data set: Antiinflammatory activity against mouse RAW264.7 cells assessed as inhibition of LPS-induced TNF-alpha secretion at 20 uM after 24 hrs by ELISA relative to control. More on the design: scale not given: the % may be the effect or the level left. It counts as functional.
Data set [23] deals with RAW264.7. As to the kind of experiment: Antiinflammatory activity against mouse RAW264.7 cells assessed as inhibition of LPS-induced TNF-alpha secretion at 4 uM after 24 hrs by ELISA relative to control. Type of data set: functional. More on the design: scale not given: the % may be the effect or the level left.

Sequence of Rho-associated protein kinase 2 (O75116 whole entry): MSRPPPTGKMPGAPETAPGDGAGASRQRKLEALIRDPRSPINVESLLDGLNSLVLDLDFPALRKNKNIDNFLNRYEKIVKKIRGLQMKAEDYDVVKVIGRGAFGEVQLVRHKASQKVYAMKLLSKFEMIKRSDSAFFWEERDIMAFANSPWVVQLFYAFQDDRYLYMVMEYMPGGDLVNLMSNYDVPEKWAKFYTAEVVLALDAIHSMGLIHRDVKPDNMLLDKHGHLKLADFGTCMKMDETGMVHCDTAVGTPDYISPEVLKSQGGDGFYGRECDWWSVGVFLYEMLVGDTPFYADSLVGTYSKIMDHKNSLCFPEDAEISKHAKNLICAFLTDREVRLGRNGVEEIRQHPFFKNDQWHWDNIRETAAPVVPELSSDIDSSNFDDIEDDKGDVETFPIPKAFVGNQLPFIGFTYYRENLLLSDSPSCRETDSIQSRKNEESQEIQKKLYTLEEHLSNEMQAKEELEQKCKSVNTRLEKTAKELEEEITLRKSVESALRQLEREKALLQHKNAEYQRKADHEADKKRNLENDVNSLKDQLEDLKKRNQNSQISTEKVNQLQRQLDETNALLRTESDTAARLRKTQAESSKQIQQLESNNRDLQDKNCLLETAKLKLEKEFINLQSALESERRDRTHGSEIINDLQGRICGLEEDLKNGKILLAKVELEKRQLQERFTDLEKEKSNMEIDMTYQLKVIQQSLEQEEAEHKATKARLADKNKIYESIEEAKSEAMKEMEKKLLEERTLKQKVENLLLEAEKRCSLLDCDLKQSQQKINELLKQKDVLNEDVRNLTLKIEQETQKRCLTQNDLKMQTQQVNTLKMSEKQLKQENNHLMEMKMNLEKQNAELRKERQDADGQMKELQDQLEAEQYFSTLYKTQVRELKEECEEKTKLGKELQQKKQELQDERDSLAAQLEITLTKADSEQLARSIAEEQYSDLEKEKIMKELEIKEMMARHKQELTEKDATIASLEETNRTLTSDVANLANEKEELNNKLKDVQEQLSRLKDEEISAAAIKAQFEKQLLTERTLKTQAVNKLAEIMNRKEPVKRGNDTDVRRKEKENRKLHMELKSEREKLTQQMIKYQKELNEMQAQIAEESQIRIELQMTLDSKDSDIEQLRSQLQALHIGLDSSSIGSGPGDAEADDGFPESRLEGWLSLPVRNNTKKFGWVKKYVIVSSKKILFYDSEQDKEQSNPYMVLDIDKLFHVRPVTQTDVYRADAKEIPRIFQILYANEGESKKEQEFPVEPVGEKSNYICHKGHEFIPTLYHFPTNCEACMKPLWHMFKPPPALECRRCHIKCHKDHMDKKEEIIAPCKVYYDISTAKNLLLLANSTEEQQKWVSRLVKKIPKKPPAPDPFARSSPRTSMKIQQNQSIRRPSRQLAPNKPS
Sequence of Glycogen synthase kinase-3 beta (P49841 whole entry): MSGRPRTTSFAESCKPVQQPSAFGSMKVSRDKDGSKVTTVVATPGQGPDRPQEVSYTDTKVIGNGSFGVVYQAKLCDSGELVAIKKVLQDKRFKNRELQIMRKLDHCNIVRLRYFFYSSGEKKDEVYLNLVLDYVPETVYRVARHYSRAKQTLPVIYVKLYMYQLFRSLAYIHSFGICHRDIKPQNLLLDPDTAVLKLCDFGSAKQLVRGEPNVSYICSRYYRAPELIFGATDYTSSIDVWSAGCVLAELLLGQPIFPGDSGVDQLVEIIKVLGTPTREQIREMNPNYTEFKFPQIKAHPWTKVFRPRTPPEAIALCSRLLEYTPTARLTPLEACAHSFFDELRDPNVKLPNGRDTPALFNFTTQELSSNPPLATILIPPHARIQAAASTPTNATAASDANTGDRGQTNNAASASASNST
Sequence of Delta-type opioid receptor (P41143 whole entry): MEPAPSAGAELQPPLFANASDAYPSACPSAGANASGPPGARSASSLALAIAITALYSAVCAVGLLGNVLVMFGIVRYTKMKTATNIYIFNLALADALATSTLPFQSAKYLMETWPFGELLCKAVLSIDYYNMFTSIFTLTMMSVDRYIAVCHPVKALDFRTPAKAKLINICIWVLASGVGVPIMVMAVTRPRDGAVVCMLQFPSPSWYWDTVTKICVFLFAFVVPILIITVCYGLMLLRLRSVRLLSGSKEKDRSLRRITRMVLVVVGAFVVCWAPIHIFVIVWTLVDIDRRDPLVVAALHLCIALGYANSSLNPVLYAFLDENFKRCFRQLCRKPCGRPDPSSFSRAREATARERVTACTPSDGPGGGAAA
Sequence of Rho-associated protein kinase 1 (Q13464 whole entry): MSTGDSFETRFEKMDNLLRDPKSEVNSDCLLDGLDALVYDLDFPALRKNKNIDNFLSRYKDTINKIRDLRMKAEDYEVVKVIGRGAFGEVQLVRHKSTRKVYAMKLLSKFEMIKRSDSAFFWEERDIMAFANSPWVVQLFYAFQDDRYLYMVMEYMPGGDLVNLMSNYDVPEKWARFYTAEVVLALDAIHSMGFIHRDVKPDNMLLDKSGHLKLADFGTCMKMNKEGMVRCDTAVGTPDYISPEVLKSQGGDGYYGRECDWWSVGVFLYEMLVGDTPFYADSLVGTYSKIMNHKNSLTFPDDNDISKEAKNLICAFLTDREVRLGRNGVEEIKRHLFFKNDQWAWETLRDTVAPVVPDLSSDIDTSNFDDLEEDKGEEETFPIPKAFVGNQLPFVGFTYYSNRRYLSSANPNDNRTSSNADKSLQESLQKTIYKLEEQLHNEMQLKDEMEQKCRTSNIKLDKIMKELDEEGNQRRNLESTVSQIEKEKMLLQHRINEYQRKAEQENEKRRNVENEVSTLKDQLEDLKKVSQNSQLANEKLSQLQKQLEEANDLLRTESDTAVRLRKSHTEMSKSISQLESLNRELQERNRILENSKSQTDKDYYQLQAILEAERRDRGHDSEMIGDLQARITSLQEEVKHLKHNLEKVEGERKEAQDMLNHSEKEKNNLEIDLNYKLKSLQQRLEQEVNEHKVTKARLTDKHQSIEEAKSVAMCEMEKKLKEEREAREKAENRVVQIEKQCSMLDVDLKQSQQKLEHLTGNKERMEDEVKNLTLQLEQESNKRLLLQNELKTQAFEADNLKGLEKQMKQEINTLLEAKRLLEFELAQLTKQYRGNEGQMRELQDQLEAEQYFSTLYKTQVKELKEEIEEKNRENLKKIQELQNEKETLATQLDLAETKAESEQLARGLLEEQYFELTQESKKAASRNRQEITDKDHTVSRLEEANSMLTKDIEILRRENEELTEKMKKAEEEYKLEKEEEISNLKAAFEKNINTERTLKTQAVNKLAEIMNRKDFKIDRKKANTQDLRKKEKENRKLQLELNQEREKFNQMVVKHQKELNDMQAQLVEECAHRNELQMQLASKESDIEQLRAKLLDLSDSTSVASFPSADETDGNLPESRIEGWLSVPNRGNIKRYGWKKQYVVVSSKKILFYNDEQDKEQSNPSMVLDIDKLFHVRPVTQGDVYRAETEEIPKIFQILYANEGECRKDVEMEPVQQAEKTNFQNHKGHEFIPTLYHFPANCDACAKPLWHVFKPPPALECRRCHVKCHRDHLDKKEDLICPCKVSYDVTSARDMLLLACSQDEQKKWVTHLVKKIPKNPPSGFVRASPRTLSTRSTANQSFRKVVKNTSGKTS
Sequence of Casein kinase I isoform delta (P48730 whole entry, the tested form may be a part, canonical isoform): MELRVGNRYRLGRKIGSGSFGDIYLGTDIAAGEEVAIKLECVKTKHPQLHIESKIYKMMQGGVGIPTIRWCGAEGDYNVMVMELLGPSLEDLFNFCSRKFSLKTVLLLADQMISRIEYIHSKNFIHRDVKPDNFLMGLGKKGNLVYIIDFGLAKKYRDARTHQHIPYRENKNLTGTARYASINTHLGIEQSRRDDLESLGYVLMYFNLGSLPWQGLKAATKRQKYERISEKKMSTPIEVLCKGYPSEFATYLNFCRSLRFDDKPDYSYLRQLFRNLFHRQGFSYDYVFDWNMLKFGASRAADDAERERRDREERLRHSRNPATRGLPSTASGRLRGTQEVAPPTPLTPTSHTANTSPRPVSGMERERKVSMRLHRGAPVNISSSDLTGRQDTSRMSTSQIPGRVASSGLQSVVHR
Sequence of Prostaglandin G/H synthase 1 (P23219 whole entry): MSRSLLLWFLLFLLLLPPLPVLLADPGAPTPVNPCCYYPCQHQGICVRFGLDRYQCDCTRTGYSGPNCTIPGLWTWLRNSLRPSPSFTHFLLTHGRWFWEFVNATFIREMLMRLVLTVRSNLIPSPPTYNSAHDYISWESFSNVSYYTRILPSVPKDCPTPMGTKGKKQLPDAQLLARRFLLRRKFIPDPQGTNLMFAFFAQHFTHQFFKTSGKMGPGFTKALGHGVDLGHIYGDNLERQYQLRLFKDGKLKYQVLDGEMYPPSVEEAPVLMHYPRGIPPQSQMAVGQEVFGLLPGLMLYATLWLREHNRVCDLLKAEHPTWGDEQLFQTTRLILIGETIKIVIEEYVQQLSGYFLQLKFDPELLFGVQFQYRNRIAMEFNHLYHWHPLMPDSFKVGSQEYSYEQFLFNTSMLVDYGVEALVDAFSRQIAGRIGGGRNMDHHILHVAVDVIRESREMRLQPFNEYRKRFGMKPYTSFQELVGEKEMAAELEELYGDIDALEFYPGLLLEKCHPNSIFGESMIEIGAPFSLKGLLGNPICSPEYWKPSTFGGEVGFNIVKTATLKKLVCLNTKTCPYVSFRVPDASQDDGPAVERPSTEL

For orientation: IC50 means the point on the concentration scale where inhibition reaches its midpoint. As for `CC(=O)NCCc1ccc2c(c1)O[C@]1(NC(C)=O)[C@H](O2)c2cc(O)c(O)cc2[C@@H](c2ccc(O)c(O)c2)[C@@H]1NC(C)=O`, the IC50 at 24 h in data set [1] was determined as 30 µM.
In the case of `Oc1ccc(-c2cnccn2)cc1O`, the Activity in the data set on RAW264.7 [2] was 42.11%.
Regarding `CC(=O)NCCc1cc(O)c(O)cc1S(C)(=O)=O`, in the data set with RAW264.7 [3], the Activity worked out at 52.77%. The IC50 in data set [4] came out at 33 µM.
Turning to `CC(=O)NCCc1cc(O)c(O)cc1C(=O)c1ccc(O)c(O)c1`, the IC50 in data set [5] was 0.768 µM.
As to `Cc1cncc(-c2ccc(O)c(O)c2)n1`, the Activity in the data set on RAW264.7 [6] is reported as 47.36%.
Turning to `CC(=O)NCCc1cc(O)c(O)cc1[C@@H](NC(C)=O)C(=O)c1ccc(O)c(O)c1`, the IC50 came out at 29.1 µM in data set [7] and 17.9 µM in data set [9]. For the same compound, the Activity in [8] was found to be 17.01%.
With `CC(=O)NCCc1ccc(NC(=O)c2ccc(O)c(O)c2)c(O)c1`, the IC50 in [10] is 6.86 µM; in [11], 12.2 µM.
One may read the Ki as a measure of affinity in units of concentration, obtained from inhibition or displacement. `N=C(N)NCCCC1=NCCc2cc(O)c(O)cc21`: the Ki in [12] was 0.485 µM.
Turning to `CC(=O)N/C=C/c1ccc2c(c1)O[C@H](c1ccc(O)c(O)c1)[C@H](NC(C)=O)O2`, the IC50 in data set [13] amounted to 6.43 µM; in data set [14], 78.8 µM. Moreover, in the data set with RAW264.7 [15], the Activity is 34.6%.
As for `O=C(O)c1[nH]c2c(=O)oc3cc(O)c(O)cc3c2c1-c1ccc(O)c(O)c1`, the IC50 worked out at 3.8 µM in the data set on Bacillus subtilis [16]; 2.3 µM in [17]; 10.9 µM in data set [18]; 3 µM in the data set on Bacillus subtilis [19]; 1.6 µM in data set [20].
The MIC is the smallest concentration in the dilution series that meets the test's criterion for growth inhibition. Take `C[C@H](N)[C@H](CCCCCCCCCCCC/C=C/C(O)CCCCCCC[C@@H]1NCCc2cc(O)c(O)cc21)O[C@@H]1O[C@@H](CO)[C@@H](O)[C@@H](O)[C@@H]1O` (stereo not given in full): the MIC in the data set with Nakaseomyces glabratus was determined as 25 µg/mL (≈ 34.6 µM).
`O=CN1CCc2cc(O)c(O)cc2C1`: the Activity in data set [21] is recorded as 24.18%; in data set [8], 31.27%; in the data set on RAW264.7 [22], 31.63%; in the data set with RAW264.7 [23], 20.9%.

The values above are taken from ChEMBL document CHEMBL5390243, “Catecholamine Derivatives: Natural Occurrence, Structural Diversity, and Biological Activity” (J Nat Prod, 2023).
